Patent US8057829B2, “Methods for repelling insects using sesquiterpene hydrocarbons and their derivatives” (Sterling International Inc., priority 2008, dated 2011)

How the values were obtained:
[1] = test system: antennae of housefly, sand fly, and mosquitoes (Aedes aegypti, Aedes increpitus, Anopheles gambiae); assay: GC-EAD antennal responses to SPME samples of patchouli essential oil; conditions: component of patchouli essential oil SPME sample; response by one or more of the insects; FIG. 2
Procedure: (§1) The following procedures were employed to test the EAD response of an insect antenna to a repellent compound. The GC-EAD technique provides an efficient tool for screening behaviorally active repellents. Several synthetic mixtures of potential insect repellent candidates, mostly sesquiterpene hydrocarbons and derivatives, were analyzed in splitless mode using a Varian CP-3800 GC equipped with a polar column (Innowax; 1.0 μm film thickness, 30 m×0.53 mm ID; J & W Scientific), and a 1:1 effluent splitter that allowed simultaneous flame ionization detection (FID) and EAD of the separated volatile compounds. Helium was used as the carrier gas, and the injector temperature was 220° C. The column temperature was 50° C. for 2 min, rising to 240° C. at 10° C./min, then held for 10 min. The outlet for the EAD was held in a humidified air stream flowing at 0.5 liter/min. over an antennal preparation. A glass capillary indifferent electrode filled with Beadle-Ephrussi Ringer, and grounded via a silver wire, was inserted into the severed insect's head with the antennae. A similar recording electrode connected to a high-impedance DC amplifier with automatic baseline drift compensation was placed in contact with the distal end of one antenna (Zhang et al., Chemoecology, 10:69-80 (2000)). The antennal signals were stored and analyzed on a PC equipped with a serial IDAC interface box and the program EAD ver. 2.5 (Syntech, Hilversum, The Netherlands). The compound 1-octen-3-ol (known attractant for many flies and mosquitoes) was included in most of the synthetic mixtures, as a positive control.

Aedes aegypti [2] = assay: Y-tube olfactometer behavioral bioassay (spatial repellency); type: in vivo
Procedure: (§2) Aegypti and An. stephensi, and one species of sand fly, P. papatasi. Both the mosquitoes and the sand flies used in the study were from colonies maintained at the Walter Reed Army Institute of Research, Department of Entomology, Silver Spring, Md. This Y-tube bioassay system, equipped with CO2-enriched air (ca. 1 l/min) as an attractant, was made from three clear acrylic tubes (4″ diameter; 12″ length) with symmetrical 120° angles among the three tube arms; and a screen butterfly valve on the top part of the bottom releasing tube. These spatial repellency tests were carried out during 8:00 am-12:00 pm (photophase) time period for Ae. aegypti and 1:00-5:00 pm (shifted scotophase) time period for the species of night-flying mosquitoes and sand fly in a temperature and humidity controlled testing room (23-25° C. and 20-40% RH). Female mosquitoes or sand flies were stored at ˜25-26° C., 50-89% RH, 12:12 hr. (L/D), fed with 10% sucrose solution before testing. The candidate chemical (individual or mixture) dispenser and a blank control were placed in the upper left or right arm of the Y-tube before releasing 25-40, 6 to 10 day-old female mosquitoes (or 3 to 10 day-old sand flies) into the bottom tube via a small hole. After a 30-60 sec acclimation period, the butterfly screen valve (door) on the top of the bottom tube was opened. After 10 min., the valve was closed and the numbers of mosquitoes or sand flies in each arm (including the bottom tube) were counted. In order to minimize the position effect, the same experiment was repeated once with the treatment and blank control arms shifted using a new (clean) Y-tube olfactometer and a new batch of mosquitoes/sand flies. Data from these two replicates were pooled for χ2 goodness of fit test (df=1) between the treatment and blank control.

Anopheles stephensi [3] = assay: as above; type: in vivo
Procedure: as §2

Aedes aegypti [4] = assay: K&D module behavioral bioassay (topical repellency, biting); type: in vivo
Procedure: (§3) The bioassays were conducted with a six-cell in vitro K&D module system, as disclosed in Klun and Debboun, J. Med. Entomol. 37:177-181 (2000), loaded with an “artificial blood” (CPDA+ATP) solution.
(§4) Clove essential oil, patchouli oil, and EAD-active potential repellents, β-caryophyllene, isocaryophyllene, (+)-longifolene, and their 1:1:1 mixture, plus α-guaiene, caryophyllene oxide, and a β-caryophyllene ketone, were tested using the six-cell in vitro K&D module system (Klun and Debboun, J. Med. Entomol. 37:177-181 (2000)) loaded with an “artificial blood” (CPDA+ATP) solution on both Ae. aegypti and An. stephensi in a dose-response fashion. The K&D in vitro assay system has three components: (1) a Plexiglas™ 29.7 cm.×7.1 cm K&D module composed of six adjacent cells, each designed to hold mosquitoes and each having a rectangular 3×4 cm floor hole that is opened and closed by a sliding door; (2) a Plexiglas™ six-well 29.7 cm×7.1 cm water water-bath warmed (38° C.) reservoir with six 3×4 cm wells designed to match the sliding-door openings of the K&D module base and to contain 6 mL warmed “artificial blood” wells covered with a collagen membrane; and (3) a 29.7 cm×7.1 cm'0.4 cm Teflon® separator having six rectangular openings like the K&D module. The K&D module was connected to a constant temperature water circulator at 38° C. The cells were covered with an Edicol collagen membrane strip. Nylon organdy strips with ink cell patterns were numbered and randomly treated with […] of the tested chemical in ethanol (ethanol alone as blank control), plus DEET (ca. 10 μg/cm^2) as a positive control. This treated nylon organdy strip was placed on top of the collagen membrane. The upper section of the K & D module with the six cells each containing 5 mosquitoes (5-10 d old, starved for 24 hr before testing) was placed on top of the nylon strip. The doors to the cells were slid open so the mosquitoes could be free to feed on the “artificial blood” via the collagen membrane if they were hungry. The experiments were allowed to run for 3 minutes, and the number of mosquitoes feeding (biting) in each cell was recorded. After each experiment, the nylon and collagen strips were removed. The CPDA+ATP solution was removed and allowed to dry prior to starting the next experiment. The experiments on each chemical and each mosquito species were run three times before the bottom section with circulated water was cleaned prior to use again.

Anopheles stephensi [5] = assay: as above; type: in vivo
Procedure: as §3, §4

[6] = test system: housefly (Musca domestica) antenna; assay: GC-EAD antennal response, housefly; conditions: female housefly antenna; synthetic mixture, about 100 ng of each compound; FIG. 3
From the text: The sesquiterpene hydrocarbons and their derivatives disclosed herein have been identified as suitable insect repellents by testing via a gas chromatographic-electroantennographic detection (GC-EAD) method as described in Example 1 below. This method can be used to efficiently screen for potentially behaviorally active compounds, including insect repellents, attractants, deterrents, or attraction-inhibitors from complex natural sources or synthetic mixtures.
The GC-EAD responses of the female housefly antenna were tested on a synthetic mixture of 1-octen-3-ol, a known attractant used as a positive control, and representative sesquiterpene hydrocarbons and derivatives, (+)-longipinene, (−)-isolongifolene, (+)-longifolene, β-caryophyllene, α-humulene, and isolongifolenone, with about 100 ng of each compound in the mixture.
The GC-EAD responses of the male housefly antenna were tested on a synthetic mixture of 1-octen-3-ol, and two representative sesquiterpenes, β-caryophyllene and isocaryophyllene, with about 100 ng of each compound in the mixture.
as §1, with “control. The results of the experiments are shown in FIGS. 1-10 and described above.” for “control.”

[7] = test system: female antennae of sand fly Phlebotomus papatasi and mosquitoes Aedes aegypti, Anopheles gambiae, Anopheles stephensi; assay: GC-EAD responses of sand fly and three mosquitoes to synthetic mixtures; conditions: about 100 ng of each compound, on one or more of the sand fly or the mosquitoes, FIGS. 9 and 10
Procedure: The GC-EAD responses of female antennae of the sand fly, Phlebotomus papatasi, and three species of mosquitoes, Aedes aegypti, Anopheles gambiae, and anopheles stephensi were tested on a synthetic mixture of 1-octen-3-ol, six sesquiterpene hydrocarbons including (+)-longipinene, (−)-isolongifolene, (+)-longifolene, β-caryophyllene, isolongifolenone, and α-humulene, and several known insect repellents including ZE-nepetalactone, EZ-nepetalactone, with about 100 ng of each compound in the mixture.
The GC-EAD responses of female antennae of the sand fly, Phlebotomus papatasi, and three species mosquitoes, Aedes aegypti, Anopheles gambiae, and anopheles stephensi were tested on a synthetic mixture of 1-octen-3-ol, linalool, β-caryophyllene oxide, isocaryophyllene, β-caryophyllene, and α-humulene, and DEET, with about 100 ng of each compound in the mixture.
as §1, with “control. The results of the experiments are shown in FIGS. 1-10 and described above.” for “control.”

[8] = test system: female mosquito Culex pipiens antenna; assay: GC-EAD antennal response, Culex pipiens; conditions: female Culex pipiens antennae; about 100 ng of each compound; responses weak, but repeatable; FIGS. 7 and 8
Procedure: The GC-EAD responses of the female mosquito Culex pipiens antenna were tested on a synthetic mixture of 1-octen-3-ol, and two sesquiterpene hydrocarbons, β-caryophyllene and isocaryophyllene, with about 100 ng of each compound in the mixture.
The GC-EAD responses of the female mosquito Culex pipiens antenna were tested on a synthetic mixture of 1-octen-3-ol, and representative sesquiterpene hydrocarbons and derivatives including (+)-longipinene, (−)-isolongifolene, (+)-longifolene, β-caryophyllene, and isolongifolenone, with about 100 ng of each compound in the mixture.
Antennal responses were weak, but repeatable, thus are considered to be true responses.
as §1, with “control. The results of the experiments are shown in FIGS. 1-10 and described above.” for “control.”

[9] = Aedes aegypti females, release rate per chemical (1-60 mg/day), 10 min
[10] = Anopheles stephensi females, release rate per chemical (β-Caryophyllene 10 mg/day), 10 min
[11] = 10 μg/cm^2, DEET values are the positive control run with the chemical

C=C1C2CCC3(C)C(C2)C(C)CCC13C (stereo not shown) [seychellene]
GC-EAD antennal activity [1]: elicited EAD-activity

C=C(C)[C@@H]1CCC(C)=C2CC[C@H](C)[C@@H]2C1 [α-Bulnesene, α-bulnesene]
GC-EAD antennal activity [1]: elicited EAD-activity | Number of mosquitoes in each arm: Blank (Aedes aegypti [2]; [9]): 35 | Number of mosquitoes in each arm: Bottom (Aedes aegypti [2]; [9]): 24 | Number of mosquitoes in each arm: Repellent (Aedes aegypti [2]; Aedes aegypti females, release rate per chemical (1-60 mg/day), 10 min, two replicates pooled): 11 | SAI (Spatial Activity Index) (Aedes aegypti [2]; Aedes aegypti, (Nc − Nt)/(Nc + Nt), −1 to 1, zero indicating no response): 0.52 | Number of mosquitoes in each arm: Repellent (Anopheles stephensi [3]; Anopheles stephensi females, release rate per chemical (1-60 mg/day; β-Caryophyllene 10 mg/day), 10 min): 13 | Number of mosquitoes in each arm: Blank (Anopheles stephensi [3]; [10]): 33 | Number of mosquitoes in each arm: Bottom (Anopheles stephensi [3]; [10]): 25 | SAI (Spatial Activity Index) (Anopheles stephensi [3]; Anopheles stephensi, β-Caryophyllene 10 mg/day): 0.43 | % of biting (±SE) (N = 3) (Aedes aegypti [4]; [11]): 73 ± 7b % | % of biting (±SE) (N = 3) (Aedes aegypti [4]; 100 μg/cm^2): 0 ± 0a % | % of biting (±SE) (N = 3) (Aedes aegypti [4]; 500 μg/cm^2): 0 ± 0a % | % of biting (±SE) (N = 3) (Aedes aegypti [4]; 1000 μg/cm^2): 0 ± 0a % | % of biting (±SE) (N = 3) (Anopheles stephensi [5]; [11]): 87 ± 7b % | % of biting (±SE) (N = 3) (Anopheles stephensi [5]; 100 μg/cm^2): 0 ± 0a % | % of biting (±SE) (N = 3) (Anopheles stephensi [5]; 500 μg/cm^2): 0 ± 0a % | % of biting (±SE) (N = 3) (Anopheles stephensi [5]; 1000 μg/cm^2): 0 ± 0a %

CC1CCC2=C1CC1CCC2(C)C1(C)C (stereo not drawn) [β-patchoulene, β-Patchoulene]
GC-EAD antennal activity [1]: elicited EAD-activity

CC1=CCC2CC3C(C)CCC13C2(C)C (stereo not drawn) [α-patchoulene, α-Patchoulene]
GC-EAD antennal activity [1]: elicited EAD-activity

CC1(C)C2=CC(=O)CC(C)(C)[C@]23CC[C@H]1C3 [isolongifolenone, reference compound]
GC-EAD antennal activity [6]: inactive | GC-EAD antennal activity [7]: does not appear to have elicited antennal activity

CC1=CC[C@@H]2[C@H]3[C@H]1[C@@]2(C)CCCC3(C)C [(+)-longipinene, (+)-Longipinene]
GC-EAD antennal activity [6]: active | GC-EAD antennal activity [8]: active | GC-EAD antennal activity [7]: antennally active
